According to PMC9503608, “An Insight into Symmetrical Cyanine Dyes as Promising Selective Antiproliferative Agents in Caco-2 Colorectal Cancer Cells” (Molecules, 2022):
Where two headings read alike, the source gives them in different places.

Legend:
[1] = MTT cell viability assay, NHDF; assay type: cell-based, human; conditions: human, normal human dermal fibroblasts (NHDF), single concentration of 10 µM, 72 h, mean ± SD; read-out: cell viability percentage in relation with control, NHDF
Procedure: (§1) Caco-2, MCF-7, PC-3, and NHDF cell lines were obtained from the American Type Culture Collection (ATCC) and maintained in 75 cm^2 culture flasks in a humidified atmosphere at 37 °C with 5% carbon dioxide using a LEEC Culture Safe Precision CO2 Incubator. The culture media was renewed every two to three days. The NHDF cell line was cultured in Roswell Park Memorial Institute (RPMI) medium supplemented with 10% of inactivated fetal bovine serum (FBS), 2 mM of L-glutamine, 10 mM of 4-(2-hydroxyethyl)-1-piperazineethanesulfonic acid (HEPES), 1 mM of sodium pyruvate, and 1% of antibiotic/antimycotic mixture (Ab; 10,000 U/mL of penicillin G, […] of streptomycin, and 25 µg/mL of amphotericin B). The PC-3 cell line was also cultured in RPMI 1640 medium supplemented with 10% inactivated FBS and 1% of an antibiotic mixture (Sp; 10,000 U/mL of penicillin G and […] of streptomycin). The Caco-2 and MCF-7 cell lines were grown in Dulbecco’s Modified Eagle Medium (DMEM). Caco-2 was supplemented with 20% of inactivated FBS and 1% of Sp. On the other hand, the MCF-7 medium was complemented with 10% of inactivated FBS and 1% of Ab. All manipulations were performed in a Labculture Class II A2 Biological Safety Cabinet.
(§2) After the near confluency of cultures, cells were detached with a solution of 0.125 g/L trypsin and 0.02 g/L ethylenediaminetetracetic acid (EDTA), counted using the trypan blue method, resuspended, and seeded in 96-well culture plates (100 µL, 2 × 10^4 cells/mL). Following 48 h of adherence, cells were treated with the test solutions and incubated for 72 h. This incubation, as well as the solution manipulations, were performed in an environment protected from light. After the incubation, the medium was replaced with a fresh incomplete culture medium (without FBS and Ab or Sp) and MTT solution (5 mg/mL in phosphate buffer saline (PBS)). After additional incubation for 4 h, the MTT medium was removed, formazan crystals were dissolved in DMSO, and the optical density of each well was measured at 570 nm using a microplate spectrophotometer Bio-Rad xMark. Untreated cells were used as a negative control and 5-FU as the positive control. The results were expressed as the relative cell proliferation relative to the negative control cells. […] To determine the IC50 values, Caco-2, MCF-7, PC-3, and NHDF cells were exposed to increasing concentrations between 0.001 and 100 μM.

[2] = tested on: normal human dermal fibroblasts (NHDF); test: MTT cell viability assay, NHDF; assay type: cell-based; conditions: Homo sapiens, NHDF, 72 h of incubation, MTT, protected from light
Procedure: as §1, §2

[3] = tested on: PC-3 prostate adenocarcinoma cell line; test: MTT cell viability assay, PC-3; assay type: cell-based, human; conditions: for viability at 10 µM: single concentration of 10 µM, mean ± SD, read-out: cell viability percentage in relation with control, PC-3
Procedure: as §1, §2

Caco-2 cells [4] = test: Apoptosis by propidium iodide staining and flow cytometry; assay type: cell-based, human
Procedure: (§3) The apoptosis occurrence and influence of the dye 12 on the cell cycle were evaluated using propidium iodide (PI) staining and flow cytometry, as described by Riccardi and Nicolleti. After the near confluency of the culture, trypsinisation, and counting, Caco-2 cells were seeded (2 mL, 3 × 10^4 cells/mL) in 6-well plates. After 48 h of adherence, the cells were treated with the test solutions (3 mL and 5 mL for negative control) and incubated for 72 h. Untreated cells were used as the negative control, and sorbitol and 5-FU [56] were used as positive controls for the apoptosis and cell cycle distribution studies, respectively. After incubation, the supernatant was collected and the cells were washed with PBS and combined with the cells harvested using the trypsin treatment. This cell suspension was maintained on ice and centrifugated, and then the pellet was resuspended in 0.5 mL of PBS. The cells were fixed by adding 4.5 mL of 70% ethanol cooled at −20 °C and were stored at the same temperature. For the cytometry analysis, PBS was added to the fixed cells before centrifugation, and then the ethanolic supernatant was removed. The pellet was resuspended in 0.5 mL of PBS and 0.5 mL of DNA extraction (192 mL of 0.2 M sodium phosphate and 8 mL of […], pH 7.8) was added. After incubation for 5 min, the cells were centrifuged, the supernatant was removed, and the pellet resuspended in 0.3 mL of staining solution (20 µg/mL of PI and 0.2 mg/mL of DNase-free RNase in PBS). Using a FACSCalibur flow cytometer and the 488 nm laser line, a minimum of 20,000 events were recorded. Acquisition and apoptosis analysis was performed using BD CellQuestTM Pro 4.0.2 Software. Cell cycle analysis was performed with ModFit LT 5.0.9 software. To exclude debris and necrotic cells, events with a lower diameter (forward scatter; FCS) and reduced PI fluorescence (FL3) than the hypodiploid apoptotic cells were eliminated. Two independent experiments were performed.

Caco-2 cells [5] = test: Morphological analysis by inverted microscopy; assay type: cell-based, human; conditions: 10 µM, 72 h, 20 or 40× magnification, versus untreated cells
Procedure: After the near confluency of the culture, trypsinisation, and counting, Caco-2 cells were seeded (3 mL; 3 × 10^4 cells/mL) in 35 mm cell culture dishes with treatment for the tissue culture. Following 48 h of adherence, the cells were treated with the test solutions and incubated for 72 h in an environment protected from light. At every 24 h, cellular morphology was verified in an Olympus CKX41 SF inverted microscope with a 10, 20, or 40× objective, and the analysis was based on comparing the cells with and without treatment. Cell imaging was captured using a DC6V Olympus digital camera coupled to the microscope.

[6] = MTT cell viability assay, Caco-2; assay type: cell-based, human; conditions: human, 72 h, read-out: SI Caco-2 (selectivity index, cancer versus NHDF)
Procedure: as §1, §2

[7] = tested on: Caco-2 colorectal adenocarcinoma cell line; test: MTT cell viability assay, Caco-2; assay type: cell-based, human; conditions: Homo sapiens; for IC50: 72 h of incubation, MTT, protected from light; for viability at 10 µM: single concentration of 10 µM, 72 h, mean ± SD, read-out: cell viability percentage in relation with control, Caco-2
Procedure: as §1, §2

[8] = tested on: MCF-7 breast adenocarcinoma cell line; test: MTT cell viability assay, MCF-7; assay type: cell-based, human; conditions: Homo sapiens; for viability at 10 µM: single concentration of 10 µM, 72 h, mean ± SD, read-out: cell viability percentage in relation with control, MCF-7
Procedure: as §1, §2

Caco-2 cells [9] = test: Cell cycle distribution by propidium iodide staining and flow cytometry; assay type: cell-based, human; conditions: dye 12 and 5-FU 10 µM 72 h, sorbitol 600 mM 24 h, versus untreated cells
Procedure: as §3

| SMILES | IC50 ([7]; Caco-2, 72 h) [nM] | melting point | viability at 72 h, 10 µM [1] [%] | IC50 ([2]; 72 h) [nM] | viability at 10 µM ([3]; Homo sapiens, 72 h, 72 h) [%] | selectivity ratio at 72 h ([6]; Caco-2, Caco-2 versus NHDF) | viability at 10 µM ([7]; Caco-2, 72 h) [%] | viability at 10 µM ([8]; MCF7, 72 h) [%] | effect on cell cycle distribution (Caco-2 cells [9]) | also measured |
| --- | --- | --- | --- | --- | --- | --- | --- | --- | --- | --- |
| CN1C(=Cc2ccc3ccccc3[n+]2C)C=Cc2ccccc21.[I-] [Dye 13, 1-Methyl-2-((1-methylquinolin-2(1H)-ylidene)methyl)quinolin-1-ium iodide] | 580 | 240 to 241 °C | 8.37 ± 2.26 | 590 | 7.42 ± 1.27 | 1 | 7.81 ± 0.51 | 11.8 ± 1.89 | – | – |
| CCN1C(=CC=Cc2[se]c3ccccc3[n+]2CC)[Se]c2ccccc21.[I-] [Dye 16, 3-Ethyl-2-(3-(3-ethylbenzo[d][1,3]selenazol-2(3H)-ylidene)prop-1-en-1-yl)benzo[d][1,3]selenazol-3-ium iodide] | – | 272 to 273 °C (dec.) | 4.53 ± 0.39 | – | – | – | – | – | – | IC50 [2]: 480 nM; viability at 10 µM ([3]; Homo sapiens, 72 h): 3.92 ± 0.75%; selectivity ratio at 72 h ([6]; Caco-2 versus NHDF): 6.5; IC50 ([7]; Caco-2): 70 nM; viability at 10 µM ([7]; Caco-2): 1.25 ± 0.39%; viability at 10 µM ([8]; MCF7): 1.39 ± 0.68% |
| CCCCCN1C(=CC=C2CCCC(C=Cc3sc4ccccc4[n+]3CCCCC)=C2Cl)Sc2ccccc21.[I-] [Dye 17, 2-(2-(2-Chloro-3-(2-(3-pentylbenzo[d]thiazol-2(3H)-ylidene)ethylidene)cyclohex-1-en-1-yl)vinyl)-3-pentylbenzo[d]thiazol-3-ium iodide] | 2060 | 227 to 228 °C | 2.26 ± 0.1 | 910 | 0.43 ± 0.26 | 0.4 | 0.24 ± 0.17 | 11.2 ± 3.11 | – | – |
| OC[C@@H](O)[C@@H](O)[C@H](O)[C@@H](O)CO [sorbitol, reference compound] | – | – | – | – | – | – | – | – | did not significantly affect the Caco-2 cell cycle | apoptosis induced (percent of cells) (Caco-2 cells [4]; Caco-2, dye 12 10 µM 72 h, sorbitol 600 mM 24 h): about 28% |

Second part, led by results:

| IC50 ([7]; Caco-2, 72 h) [nM] | melting point | SMILES | viability at 72 h, 10 µM [1] [%] | IC50 ([2]; 72 h) [nM] | viability at 10 µM ([3]; Homo sapiens, 72 h, 72 h) [%] | selectivity ratio at 72 h ([6]; Caco-2, Caco-2 versus NHDF) | viability at 10 µM ([7]; Caco-2, 72 h) [%] | viability at 10 µM ([8]; MCF7, 72 h) [%] | effect on cell cycle distribution (Caco-2 cells [9]) | also measured |
| --- | --- | --- | --- | --- | --- | --- | --- | --- | --- | --- |
| 1700 | – | O=c1[nH]cc(F)c(=O)[nH]1 [Dye 5-FU, 5-fluorouracil, reference compound] | 12.7 ± 3.99 | 6170 | 11.9 ± 2.1 | 3.6 | 25.7 ± 1.02 | 16 ± 1.8 | significant increase in the rate of Caco-2 cells in the S-phase | IC50 ([3]; Homo sapiens, 72 h of incubation, MTT, protected from light): 1720 nM; SI PC-3 (selectivity index, cancer versus NHDF) ([3]; PC-3 versus NHDF, 72 h): 3.6; increase in apoptotic cells relative to untreated cells (Caco-2 cells [4]; Caco-2, 10 µM, 72 h): approximately 10%; morphological changes of Caco-2 cells (Caco-2 cells [5]): cell size increase with an enlarged and well-defined nucleus; IC50 ([8]; MCF7, 72 h of incubation, MTT, protected from light): 1240 nM |
| 680 | 229 to 231 °C | CCCN1C=CC(=Cc2cc[n+](CCC)c3ccccc23)c2ccccc21.[I-] [Dye 14, 1-Propyl-4-((1-propylquinolin-4(1H)-ylidene)methyl)quinolin-1-ium iodide] | 1.99 ± 0.25 | 990 | 8.03 ± 2.15 | 1.5 | 9.84 ± 0.93 | 22.9 ± 0.68 | – | – |
